Article PMC8608343 (PLoS ONE, 2021)
≈ marks a conversion by molar mass, not a printed value.

What was measured:
[1] = tested on: Leishmania donovani promastigotes; experiment: ROS generation in treated promastigotes (H2DCFDA); type: cell-based; details: 100, 50 or 25 μM, 72 hrs
Protocol: (§1) The degree of reactive oxygen species (ROS) production in treated promastigote and amastigote cells of L. donovani were assessed using the H2DCFDA (2’,7’-dichlorodihydrofluorescein diacetate) rich fluorescent dye (MAK145 Sigma-Aldrich) ROS detection kit. […] Amoxicillin was used as a positive control for pro-oxidative generation while Vitamin C was used as a positive control for anti-oxidative potential. The treated and untreated cells were then suspended in PBS, washed, and resuspended in PBS, then incubated with the ROS detection master mix for 1 hr as instructed by the protocol. The cells were analyzed for intracellular ROS generation by measuring the fluorescence intensity which is proportional to the ROS production level using the Varioskan Lux Elisa microplate reader (Thermo Fischer Scientific, USA) at a wavelength of 605 nm.

[2] = tested on: Leishmania donovani amastigotes; experiment: ROS generation in treated amastigotes (H2DCFDA); type: cell-based; details: 100, 50 or 25 μM, 24 hrs
Protocol: as §1

[3] = tested on: Leishmania donovani amastigotes in RAW macrophage cells; experiment: Antileishmanial activity against macrophage-amastigotes (MTT assay); type: cell-based; details: for Therapeutic Index (TC50/IC50) amastigotes: TC50 RAW / IC50 amastigote; for IC50 (μg/ml) ±SD amastigote / IC50: amastigotes in RAW macrophages, MTT; for IC50: Leishmania donovani, Macrophage, read-out: IC50 (μg/ml) ±SD amastigote
Protocol: The RAW macrophage cells were infected with promastigotes at a density of 1:10 ratio, respectively for 12 hrs and the non-phagocytosed promastigotes and media removed by aspiration. The RAW macrophages cells containing the internalized amastigote cells were treated with the compounds to test for their growth inhibitory potentials as previously described. The 3-(4,5-Dimethylthiazol-2-yl)-2,5-diphenyltetrazolium bromide (MTT) assay was also used to determine the parasite viability. […] was measured with a Varioskan Lux Elisa plate reader at a wavelength of 570 nm.

O+ human red blood cells = experiment: Haemolytic potential; details: 2% haematocrit, up to 100 μg/ml
Protocol: The compounds were tested against the O^+ human red blood cells (obtained from the Malaria laboratory of WACCBIP) at a density of 2% haematocrit for their ability to lyse erythrocytes upon incubation. Here, a concentration of up to 100 μg/ml of compounds was used, and the 50% haemolytic concentration (HC50) of the compounds were determined by analysis of dose-response curves as described.

[4] = tested on: RAW 264.7 murine macrophage cell line; experiment: Cytotoxicity against mammalian RAW macrophage cell line (MTT assay); details: 48 hrs, 50% cytotoxic concentration
Text: Here, amphotericin B was used as a positive control and the negative control was untreated RAW cell line.

[5] = tested on: Leishmania donovani promastigotes; experiment: Antileishmanial activity against promastigotes (MTT assay); type: cell-based; details: for IC50 (μg/ml) ±SD promastigote / IC50: 96 hrs at 25° C, MTT, mean of three experiments; for Therapeutic Index (TC50/IC50) promastigotes: TC50 RAW / IC50 promastigote; for IC50: Leishmania donovani, read-out: IC50 (μg/ml) ±SD promastigote
Text: Amphotericin B was used as a positive control. The 3-(4,5-Dimethylthiazol-2-yl)-2,5-diphenyltetrazolium bromide (MTT) assay was used to determine the parasite viability as previously described.

[6] = tested on: Leishmania donovani promastigotes; experiment: Morphological and mitochondrion effects by fluorescence microscopy (DAPI, MitoTracker); type: cell-based; details: for morphological / mitochondrial changes after 72 hrs: 2x IC50, 72 hrs
Protocol: Their mitochondrial integrity were analyzed using a slightly modified DAPI and Mitotracker dye protocol as described by Amisigo and colleagues.

[7] = tested on: Leishmania donovani promastigotes; experiment: Growth kinetics and cytocidal/cytostatic (growth reversibility) assay; type: cell-based; details: 1 μg/ml, 120 hrs treatment, then 96 hrs in fresh media
Protocol: The compounds (at 1 μg/ml) were tested for their effects on the growth kinetic pattern against the promastigotes of L. donovani. The parasite cells (2 x 10^5 cells/ml) were incubated at 25° C in the presence of the test compounds in M199 supplemented with 10% FBS. Amphotericin B treated parasites (0–50 μg/ml) were used as the positive control while the untreated promastigotes in medium alone served as the negative control. Viable cells were counted every 24 hrs for a total of 120 hrs as indicated in previous studies.
The cytocidal/cytostatic effect of the test compounds were assessed by analyzing the treated and untreated parasites after 120 hrs of incubation. Cells were washed twice with fresh M199, resuspended in complete M199 media and incubated further for 96 hrs. The viable cells were then counted microscopically.

CC1(C)S[C@@H]2[C@H](NC(=O)[C@H](N)c3ccc(O)cc3)C(=O)N2[C@H]1C(=O)O [Amoxicillin, reference compound]
ROS generation effect in promastigotes [1]: pro-oxidative action
ROS generation effect in amastigotes [2]: pro-oxidative effect

C[C@@H]1[C@H](O)[C@@H](C)/C=C/C=C/C=C/C=C/C=C/C=C/C=C/[C@H](O[C@@H]2O[C@H](C)[C@@H](O)[C@H](N)[C@@H]2O)C[C@@H]2O[C@](O)(C[C@@H](O)C[C@@H](O)[C@H](O)CC[C@@H](O)C[C@@H](O)CC(=O)O[C@H]1C)C[C@H](O)[C@H]2C(=O)O [Amphotericin B, reference compound]
ROS generation effect in promastigotes [1]: anti-oxidative effect
ROS generation effect in amastigotes [2]: anti-oxidative effect

O=C(Nc1ccc2c(c1)B(O)OC2)c1ccccc1C(F)(F)F [Compound A03B]
ROS generation effect in promastigotes [1]: anti-oxidative effect
ROS generation effect in amastigotes [2]: anti-oxidative effect
Therapeutic Index (TC50/IC50) amastigotes [3]: 0.90
IC50 (μg/ml) ±SD amastigote [3]: 0.20 ± 0.030 µg/mL (≈ 0.623 µM)
HC50 (O+ human red blood cells): >100 µg/mL
TC50 (μg/ml) ±SD RAW [4]: 0.18 ± 0.050 µg/mL (≈ 0.561 µM)
IC50 (μg/ml) ±SD promastigote [5]: 0.44 ± 0.200 µg/mL (≈ 1.37 µM)
Therapeutic Index (TC50/IC50) promastigotes [5]: 0.41

O=C(NCc1nnc2n1CCCCC2)c1ccc(-c2ccc(F)cc2)o1 [Compound A06A]
ROS generation effect in promastigotes [1]: anti-oxidative effect
IC50 [3]: 0.38 ± 0.01 µg/mL (≈ 1.07 µM)
Therapeutic Index (TC50/IC50) amastigotes [3]: 1.03
HC50 (O+ human red blood cells): >100 µg/mL
TC50 (μg/ml) ±SD RAW [4]: 0.39 ± 0.05 µg/mL (≈ 1.1 µM)
cells with slight enlargement of nuclear and kinetoplast DNA ([6]; 2x IC50, 24 hrs): 50%
morphological / mitochondrial changes after 72 hrs [6]: most of the few cells left lost their kinetoplast DNA
IC50 [5]: 0.19 ± 0.008 µg/mL (≈ 0.536 µM)
Therapeutic Index (TC50/IC50) promastigotes [5]: 2.05

Clc1cccc(CO[C@H]2CCc3ccccc3[C@@H]2n2ccnn2)c1 [Compound A07E]
Therapeutic Index (TC50/IC50) amastigotes [3]: 0.07
IC50 (μg/ml) ±SD amastigote [3]: >6.25 µg/mL
HC50 (O+ human red blood cells): >100 µg/mL
TC50 (μg/ml) ±SD RAW [4]: 0.41 ± 0.020 µg/mL (≈ 1.21 µM)
IC50 (μg/ml) ±SD promastigote [5]: >6.25 µg/mL
Therapeutic Index (TC50/IC50) promastigotes [5]: 0.07

Cc1ncc(-c2ccnc(Nc3ccc(S(C)(=O)=O)cc3)n2)n1C(C)C [Compound B03B]
ROS generation effect in promastigotes [1]: pro-oxidative action
ROS generation effect in amastigotes [2]: anti-oxidative effect
Therapeutic Index (TC50/IC50) amastigotes [3]: 0.63
IC50 (μg/ml) ±SD amastigote [3]: 0.40 ± 0.050 µg/mL (≈ 1.08 µM)
HC50 (O+ human red blood cells): >100 µg/mL
TC50 (μg/ml) ±SD RAW [4]: 0.25 ± 0.040 µg/mL (≈ 0.673 µM)
cytocidal/cytostatic effect upon drug withdrawal [7]: cytocidal effect
IC50 (μg/ml) ±SD promastigote [5]: 0.20 ± 0.040 µg/mL (≈ 0.538 µM)
Therapeutic Index (TC50/IC50) promastigotes [5]: 1.25

COc1ccc(C2=NN(C3CCCCCC3)C(=O)[C@@H]3CC=CC[C@H]23)cc1OCCCCOc1ccc(-c2nn[nH]n2)cc1 [Compound C02B]
ROS generation effect in amastigotes [2]: anti-oxidative effect
Therapeutic Index (TC50/IC50) amastigotes [3]: 2.92
IC50 (μg/ml) ±SD amastigote [3]: 0.13 ± 0.004 µg/mL (≈ 0.222 µM)
HC50 (O+ human red blood cells): >100 µg/mL
TC50 (μg/ml) ±SD RAW [4]: 0.38 ± 0.010 µg/mL (≈ 0.65 µM)
IC50 (μg/ml) ±SD promastigote [5]: 0.15 ± 0.130 µg/mL (≈ 0.257 µM)
Therapeutic Index (TC50/IC50) promastigotes [5]: 2.53

CO[C@@H](C(=O)N1Cc2[nH]nc(NC(=O)c3ccc(N4CCN(C)CC4)cc3)c2C1)c1ccccc1 [Compound C03B]
ROS generation effect in promastigotes [1]: pro-oxidative action
IC50 (μg/ml) ±SD amastigote [3]: >6.25 µg/mL
HC50 (O+ human red blood cells): >100 µg/mL
TC50 (μg/ml) ±SD RAW [4]: 0.21 ± 0.010 µg/mL (≈ 0.443 µM)
IC50 (μg/ml) ±SD promastigote [5]: 0.62 ± 0.010 µg/mL (≈ 1.31 µM)
Therapeutic Index (TC50/IC50) promastigotes [5]: 0.34

c1ccc(Oc2ccc(-c3cc(C4CCOCC4)n[nH]3)cc2)cc1 [Compound D02A]
IC50 [3]: 0.22 ± 0.02 µg/mL (≈ 0.687 µM)
Therapeutic Index (TC50/IC50) amastigotes [3]: 454.55
HC50 (O+ human red blood cells): >100 µg/mL
TC50 (μg/ml) ±SD RAW [4]: >100 µg/mL
morphological / mitochondrial changes after 24 hrs ([6]; 2x IC50, 24 hrs): degeneration in the mitochondria integrity
morphological / mitochondrial changes after 72 hrs [6]: degeneration of the nuclear and kinetoplast DNA continued
IC50 [5]: 0.21 ± 0.01 µg/mL (≈ 0.655 µM)
Therapeutic Index (TC50/IC50) promastigotes [5]: 476.19

N=C(N)c1ccc(-c2cc(-c3ccccc3)on2)cc1 [Compound E02A]
ROS generation effect in promastigotes [1]: anti-oxidative effect
IC50 [3]: 5.34 ± 0.01 µg/mL (≈ 20.3 µM)
Therapeutic Index (TC50/IC50) amastigotes [3]: 18.73
HC50 (O+ human red blood cells): >100 µg/mL
TC50 (μg/ml) ±SD RAW [4]: >100 µg/mL
morphological / mitochondrial changes after 24 hrs ([6]; 2x IC50, 24 hrs): did not show marked morphological changes
morphological / mitochondrial changes after 72 hrs [6]: degenerate after 72 hrs
IC50 [5]: 0.29 ± 0.001 µg/mL (≈ 1.1 µM)
Therapeutic Index (TC50/IC50) promastigotes [5]: 344.83

CC1CCCCN1C(=O)NCCc1coc(-c2ccc(F)cc2)n1 (stereo not drawn) [Compound E05A]
ROS generation effect in promastigotes [1]: anti-oxidative effect
Therapeutic Index (TC50/IC50) amastigotes [3]: 36.50
IC50 (μg/ml) ±SD amastigote [3]: 2.74 ± 0.100 µg/mL (≈ 8.27 µM)
HC50 (O+ human red blood cells): >100 µg/mL
TC50 (μg/ml) ±SD RAW [4]: >100 µg/mL
IC50 (μg/ml) ±SD promastigote [5]: 0.39 ± 0.060 µg/mL (≈ 1.18 µM)
Therapeutic Index (TC50/IC50) promastigotes [5]: 256.41

CS(=O)(=O)c1ccccc1C(=O)N(Cc1ccccc1)c1ccccc1 [Compound H05A]
ROS generation effect in promastigotes [1]: anti-oxidative effect
Therapeutic Index (TC50/IC50) amastigotes [3]: 0.60
IC50 (μg/ml) ±SD amastigote [3]: 0.25 ± 0.040 µg/mL (≈ 0.684 µM)
HC50 (O+ human red blood cells): >100 µg/mL
TC50 (μg/ml) ±SD RAW [4]: 0.15 ± 0.030 µg/mL (≈ 0.41 µM)
IC50 (μg/ml) ±SD promastigote [5]: 0.78 ± 0.170 µg/mL (≈ 2.13 µM)
Therapeutic Index (TC50/IC50) promastigotes [5]: 0.19

CCN(CC)CCCCCCNc1cc(OC)cc2c(C)ccnc12 [MMV000063]
ROS generation effect in amastigotes [2]: anti-oxidative effect

CCC(=O)Nc1ccccc1C(=O)Nc1ccccn1 [MMV202553]
ROS generation effect in promastigotes [1]: anti-oxidative effect

CC(C)(C)OC(=O)N1CCN(c2cc(-c3ccc(Oc4ccccc4)cc3)n[nH]2)CC1 [MMV676057]
ROS generation effect in promastigotes [1]: anti-oxidative effect
ROS generation effect in amastigotes [2]: pro-oxidative effect

CCOc1ccc2cc(-c3nn(CC4CCN(C)CC4)c4ncnc(N)c34)ccc2c1 [MMV688854]
ROS generation effect in amastigotes [2]: anti-oxidative effect

CCc1nn(C)c(C(=O)NCc2ccc(Oc3ccc(C)cc3)cc2)c1Cl [MMV688934]
ROS generation effect in promastigotes [1]: anti-oxidative effect

CC(C)(C)C(O)C(Oc1ccc(-c2ccccc2)cc1)n1cncn1 (stereo not drawn) [MMV688942]
ROS generation effect in promastigotes [1]: anti-oxidative effect

Nc1ncnc2c1ncn2C[C@@H](O)[C@@H](O)C(=O)O [MMV689255]
ROS generation effect in amastigotes [2]: anti-oxidative effect

O=C1O[C@H]([C@@H](O)CO)C(O)=C1O [Vitamin C, reference compound]
ROS generation effect in promastigotes [1]: anti-oxidative effect
ROS generation effect in amastigotes [2]: anti-oxidative effect
